Assay: xn = mol fraction of the nth substance listed
Conditions: 93.2 kPa

Q: For NC=O + CCCC[n+]1ccn(C)c1.F[P-](F)(F)(F)(F)F, which speed of sound (288.15 K, x2 = 0) is on record?
A: 1619 m/s

Q: What about the speed of sound (298.15 K, x2 = 0) of the same compound?
A: 1598 m/s

Q: What about the speed of sound (303.15 K, x2 = 0) of the same compound?
A: 1588 m/s

Q: Which results are given for CCCC[n+]1ccn(C)c1.F[P-](F)(F)(F)(F)F + NC=O?
A: speed of sound (288.15 K, x1 = 0.0502): 1587 m/s; speed of sound (288.15 K, x1 = 0.0995): 1563 m/s; speed of sound (288.15 K, x1 = 0.1488): 1545 m/s; speed of sound (288.15 K, x1 = 0.3001): 1513 m/s; speed of sound (288.15 K, x1 = 0.4985): 1494 m/s; speed of sound (288.15 K, x1 = 0.6976): 1484 m/s; speed of sound (288.15 K, x1 = 0.7792): 1482 m/s; speed of sound (288.15 K, x1 = 0.8902): 1480 m/s; speed of sound (288.15 K, x1 = 1): 1478 m/s; speed of sound (293.15 K, x1 = 0.0502): 1576 m/s; speed of sound (293.15 K, x1 = 0.0995): 1552 m/s; speed of sound (293.15 K, x1 = 0.1488): 1534 m/s; speed of sound (293.15 K, x1 = 0.3001): 1501 m/s; speed of sound (293.15 K, x1 = 0.3821): 1491 m/s; speed of sound (293.15 K, x1 = 0.4985): 1482 m/s; speed of sound (293.15 K, x1 = 0.595): 1476 m/s; speed of sound (293.15 K, x1 = 0.8902): 1467 m/s; speed of sound (293.15 K, x1 = 1): 1464 m/s; speed of sound (298.15 K, x1 = 0.0502): 1565 m/s; speed of sound (298.15 K, x1 = 0.1488): 1522 m/s; speed of sound (298.15 K, x1 = 0.2006): 1508 m/s; speed of sound (298.15 K, x1 = 0.3821): 1479 m/s; speed of sound (298.15 K, x1 = 0.4985): 1470 m/s; speed of sound (298.15 K, x1 = 0.595): 1464 m/s; speed of sound (298.15 K, x1 = 0.8902): 1454 m/s; speed of sound (303.15 K, x1 = 0.0502): 1554 m/s; speed of sound (303.15 K, x1 = 0.0995): 1529 m/s; speed of sound (303.15 K, x1 = 0.1488): 1511 m/s; speed of sound (303.15 K, x1 = 0.2006): 1497 m/s; speed of sound (303.15 K, x1 = 0.3001): 1478 m/s; speed of sound (303.15 K, x1 = 0.3821): 1468 m/s; speed of sound (303.15 K, x1 = 0.4985): 1458 m/s; speed of sound (303.15 K, x1 = 0.6976): 1448 m/s; speed of sound (303.15 K, x1 = 0.7792): 1445 m/s; speed of sound (303.15 K, x1 = 0.8902): 1442 m/s; speed of sound (303.15 K, x1 = 1): 1439 m/s
